Measured values: US8530487B1 (priority 2009, dated 2013)

Biological target: human TRPA1 (Homo sapiens, UniProt O75762)
Assay: cell-based
Details: read-out: Activity (IC50)

Sequence of human TRPA1 (O75762 whole entry): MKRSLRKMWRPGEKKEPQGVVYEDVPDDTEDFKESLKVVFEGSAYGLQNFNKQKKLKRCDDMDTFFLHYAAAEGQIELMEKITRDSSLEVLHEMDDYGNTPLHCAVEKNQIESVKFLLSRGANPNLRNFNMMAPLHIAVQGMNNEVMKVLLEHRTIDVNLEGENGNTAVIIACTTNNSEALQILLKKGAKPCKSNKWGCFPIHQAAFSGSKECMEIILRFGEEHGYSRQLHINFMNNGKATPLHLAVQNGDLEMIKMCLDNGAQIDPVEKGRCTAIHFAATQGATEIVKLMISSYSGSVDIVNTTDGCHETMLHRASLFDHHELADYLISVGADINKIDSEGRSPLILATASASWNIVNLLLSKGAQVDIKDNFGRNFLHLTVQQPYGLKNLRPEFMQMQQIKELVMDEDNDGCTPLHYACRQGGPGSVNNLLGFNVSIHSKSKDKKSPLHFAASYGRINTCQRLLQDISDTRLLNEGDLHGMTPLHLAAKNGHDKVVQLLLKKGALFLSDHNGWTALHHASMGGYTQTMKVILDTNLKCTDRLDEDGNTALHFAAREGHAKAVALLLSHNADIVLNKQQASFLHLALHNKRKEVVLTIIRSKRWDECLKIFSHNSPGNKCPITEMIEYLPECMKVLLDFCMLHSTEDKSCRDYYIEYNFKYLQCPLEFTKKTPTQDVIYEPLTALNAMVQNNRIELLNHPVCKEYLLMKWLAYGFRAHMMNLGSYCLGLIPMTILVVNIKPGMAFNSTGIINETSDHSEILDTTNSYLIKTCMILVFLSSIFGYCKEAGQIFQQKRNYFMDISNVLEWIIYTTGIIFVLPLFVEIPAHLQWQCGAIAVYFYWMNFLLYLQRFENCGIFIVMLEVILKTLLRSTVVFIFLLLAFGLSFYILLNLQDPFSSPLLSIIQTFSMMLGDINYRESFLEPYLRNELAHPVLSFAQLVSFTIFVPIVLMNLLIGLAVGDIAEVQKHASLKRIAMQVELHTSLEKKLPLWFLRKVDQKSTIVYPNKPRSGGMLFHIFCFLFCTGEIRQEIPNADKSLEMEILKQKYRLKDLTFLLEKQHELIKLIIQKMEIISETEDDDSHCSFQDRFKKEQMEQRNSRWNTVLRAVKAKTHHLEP

| IC50 [µM] | SMILES |
| --- | --- |
| < 0.1 | CCCOc1cccc(C2NC(=O)N(C)C3=C2C(=O)c2ccccc23)c1 (centres unmarked) [Compound 645] |
| > 1 | N#Cc1cccc(C2NC(=O)NC3=C2C(=O)c2ccccc23)c1 (centres unmarked) [Compound 430] |
| > 1 | N#CN=C1NC2=C(C(=O)c3ccccc32)C(c2cccc(OCC3CCC3)c2)N1 (centres unmarked) [Compound 958] |
| 0.1 to 0.5 | C=CCOc1ccc(Cl)c(C2NC(=O)NC3=C2C(=O)c2ccccc23)c1 (centres unmarked) [Compound 637] |
| > 1 | O=C1NC2=C(C(=O)c3ccccc32)C(c2cccc(Cl)c2Cl)N1 (centres unmarked) [Compound 446] |
| > 1 | CN(C)c1cccc(C2NC(=O)NC3=C2C(=O)c2ccccc23)c1 (centres unmarked) [Compound 445] |
| > 1 | CC(C)COc1cccc(C2NC(=NC#N)NC3=C2C(=O)c2ccccc23)c1 (centres unmarked) [Compound 959] |
| > 1 | CCn1c(=O)oc2c(C3NC(=O)NC4=C3C(=O)c3ccccc34)cccc21 (centres unmarked) [Compound 506] |
| < 0.1 | CCOc1cccc(C2NC(=S)NC3=C2C(=O)c2ccccc23)c1 (centres unmarked) [Compound 310] |
| < 0.1 | CCCOc1ccc(F)c(C2NC(=O)NC3=C2C(=O)c2cccnc23)c1F (centres unmarked) [Compound 912] |
| > 1 | O=C1NC2=C(C(=O)c3ccccc32)C(c2cccc(Cl)c2)N1 (centres unmarked) [Compound 431] |
| 0.1 to 0.5 | CCOc1cccc(C2NC(=O)NC3=C2C(=O)c2cccnc23)c1 (centres unmarked) [Compound 902] |
| 0.1 to 0.5 | CCOc1cccc(C2NC(=O)NC3=C2C(=O)c2ccccc23)c1 (centres unmarked) [Compound 412] |
| < 0.1 | C=CCOc1cccc(C2NC(=O)N(Cc3cccnc3)C3=C2C(=O)c2ccccc23)c1 (centres unmarked) [Compound 634] |
| > 1 | C=CCOc1cccc(C2NC(=O)NC3=C2C(=O)c2ccccc23)c1OC (centres unmarked) [Compound 455] |
| > 1 | O=C1NC2=C(C(=O)c3ccccc32)C(c2ccc(Cl)cc2)N1 (centres unmarked) [Compound 442] |
| > 1 | O=C1NC2=C(C(=O)c3cc(Cl)ccc32)C(c2cc(O)ccc2Br)N1 (centres unmarked) [Compound 103] |
| > 1 | O=C1NC2=C(C(=O)c3ccccc32)C(c2cc(C(F)(F)F)ccc2Cl)N1 (centres unmarked) [Compound 448] |

| IC50 [µM] | SMILES |
| --- | --- |
| < 0.1 | C=CCOc1cccc(C2NC(=O)N(CC)C3=C2C(=O)c2ccccc23)c1 (centres unmarked) [Compound 630] |
| > 1 | CCOc1cccc(C2NC(=O)N(CC(=O)O)C3=C2C(=O)c2ccccc23)c1 (centres unmarked) [Compound 610] |
| > 1 | CCCCCOc1cccc(C2NC(=O)NC3=C2C(=O)c2ccccc23)c1 (centres unmarked) [Compound 460] |
| < 0.1 | C=CCOc1ccc(Cl)c(C2NC(=O)N(C)C3=C2C(=O)c2ccccc23)c1 (centres unmarked) [Compound 638] |
| 0.5 to 1 | CCOc1cccc(C2NC(=O)NC3=C2C(=O)c2ccccc23)c1Cl (centres unmarked) [Compound 423] |
| 0.1 to 0.5 | C=CCOc1ccc(F)c(C2NC(=O)NC3=C2C(=O)c2ccccc23)c1 (centres unmarked) [Compound 417] |
| > 1 | C=CCOc1cccc(C2NC(=O)NC3=C2C(=O)c2ccccc23)c1C(F)(F)F (centres unmarked) [Compound 454] |
| < 0.1 | C=CCOc1cccc(C2NC(=O)N(Cc3ccc(F)cc3)C3=C2C(=O)c2ccccc23)c1 (centres unmarked) [Compound 633] |
| < 0.1 | CCCOc1cccc(C2NC(=O)N(CC)C3=C2C(=O)c2ccccc23)c1 (centres unmarked) [Compound 646] |
| > 1 | Nc1cccc(C2NC(=O)NC3=C2C(=O)c2ccccc23)c1 (centres unmarked) [Compound 444] |
| 0.1 to 0.5 | COc1cccc(C2NC(=O)N(Cc3ccccc3)C3=C2C(=O)c2ccccc23)c1 (centres unmarked) [Compound 625] |
| > 1 | C=CCOc1cccc(C2NC(=O)N(C)C3=C2C(=O)c2ccccc23)c1C(F)(F)F (centres unmarked) [Compound 643] |
| 0.1 to 0.5 | CCOc1cccc(C2NC(=O)NC3=C2C(=O)c2cccnc23)c1F (centres unmarked) [Compound 901] |
| < 0.1 | C=CCOc1cccc(C2NC(=O)N(C)C3=C2C(=O)c2ccccc23)c1Cl (centres unmarked) [Compound 639] |
| < 0.1 | CCOc1cccc(C2NC(=S)N(C)C3=C2C(=O)c2ccccc23)c1 (centres unmarked) [Compound 311] |
| < 0.1 | C=CCOc1cc(Cl)cc(C2NC(=O)NC3=C2C(=O)c2ccccc23)c1 (centres unmarked) [Compound 406] |
| > 1 | COCc1cccc(C2NC(=O)NC3=C2C(=O)c2ccccc23)c1 (centres unmarked) [Compound 453] |
